Converted amounts (≈) assume the structure as drawn. Like-named read-outs stand apart in the source and are kept apart here. Positions of bridges follow the written chain, without caps; N, C: chain ends. Non-standard residues stand in square brackets, D forms with d. Residues, ends and D or L forms follow the SMILES beside them. *: point of attachment. Ileψ(thiazoline)Cys = CC[C@H](C)[C@H](N)C1=N[C@H](C(=O)*)CS1; dOrn = NCCC[C@@H](N)C(=O)O A value given as a limit tells only on which side of the number the result lay.

In assay [1] the test system is Vibrio cholerae (A1522). The experiment in a line: microbe, parasite or virus in culture. The format is cell-based. The procedure:
(§1) Additional bacteria Enterococcus faecalis (13-327129), Enterococcus faecalis (16-7418), Methicillin-resistant Staphylococcus epidermidis (933010 3F-16 b4), Listeria monocytogenes EGD, Pseudomonas aeruginosa (PA01), Salmonella typhimurium (14028), Klepsiella pneumoniae (CAS55), Vibrio cholerae (A1522), and Escherichia coli (UTI89) were either grown in BHI or Lysogeny broth (LB) media.
An ON culture was made by inoculating a bacterial colony in either 5 mL of MH or BHI and incubating at 37° C. with agitation. The antibiotic of interest was added to a row of a sterile 96-well plate (VWR) and a serial dilution was made down the rows containing 50 μL of MH or BHI media in each well, resulting in 2-fold dilution for each row. The ON culture was diluted to OD625 at approximately 1.0 followed by a 1:100 dilution to approximately OD625=0.01 of which 50 μL was added to each well to a final volume of 100 μL. […] Presence and absence of growth were determined by visual appearance. FIC index was calculated as follows (Alam M T et al. Antibacterial activity of different organic extracts of Achyranthes aspera and Cassia alata. J Sci Res. 2009).
To further assess the spectrum of use for the combination of CBD and bacitracin, growth of Gram-negative bacteria upon treatment was measured as well as described in Example 1. […]

For assay [2], the system named is MRSA USA300 FPR3757. The experiment in a line: microbe, parasite or virus in culture. The format is cell-based, Staphylococcus aureus. The conditions noted are these: for FIC Index: combination of cannabidiol with the respective antibiotic, synergy <= 0.5, no interaction 0.5-4.0, antagonism > 4. The procedure: (§2) The resistant bacterium MRSA USA300 FPR3757 (USA300) was the main used bacterium throughout this study. MRSA was grown in Brain Heart Infusion (BHI) or Müeller Hinton (MH) media on plate or in liquid cultures with agitation at 37° C.
An ON culture was made by inoculating a bacterial colony in either 5 mL of MH or BHI and incubating at 37° C. with agitation. The antibiotic of interest was added to a row of a sterile 96-well plate (VWR) and a serial dilution was made down the rows containing 50 μL of MH or BHI media in each well, resulting in 2-fold dilution for each row. The ON culture was diluted to OD625 at approximately 1.0 followed by a 1:100 dilution to approximately OD625=0.01 of which 50 μL was added to each well to a final volume of 100 μL. The 96-well plate was incubated at 37° C. with shaking at 225 rpm for approximately 18-24 hours. Presence and absence of growth were determined by visual appearance.
B) The other screen was based on fractional inhibitory concentration (FIC) index.

Assay [3] relates to L. monocytogenes EGD. In words: microbe, parasite or virus in culture. Format: cell-based, Listeria monocytogenes. The procedure:
as §1
(§3) An ON culture was made by inoculating a bacterial colony in either 5 mL of MH or BHI and incubating at 37° C. with agitation. The antibiotic of interest was added to a row of a sterile 96-well plate (VWR) and a serial dilution was made down the rows containing 50 μL of MH or BHI media in each well, resulting in 2-fold dilution for each row. The ON culture was diluted to OD625 at approximately 1.0 followed by a 1:100 dilution to approximately OD625=0.01 of which 50 μL was added to each well to a final volume of 100 μL. The 96-well plate was incubated at 37° C. with shaking at 225 rpm for approximately 18-24 hours. Presence and absence of growth were determined by visual appearance. FIC index was calculated as follows (Alam M T et al. Antibacterial activity of different organic extracts of Achyranthes aspera and Cassia alata. J Sci Res. 2009).
(§4) To study the bacterial spectrum of the combination, CBD and bacitracin growth measurements of other Gram-positive bacteria tests on Enterococcus faecalis, an MRSE strain and a strain of Listeria monocytogenes were performed as described in Example 1.
(§5) The MIC for bacitracin and CBD and the respective FIC values are visualized in table 2 for the Gram-positive bacteria and are calculated based on two biological replicates.

Assay [4] concerns E. faecalis (13-327129). The experiment in a line: microbe, parasite or virus in culture. The format is cell-based, Enterococcus faecalis. The procedure: as §1, §3, §4, §5
In assay [5] the test system is E. faecalis (16-7418). The experiment in a line: microbe, parasite or virus in culture. Format: cell-based, Enterococcus faecalis. The procedure:
as §1, §3, §4, §5

Assay [6] has as its system MRSA USA300. In words: Micro dilution growth experiments using oCelloScope, CBD combined with antibiotics (FIG. 1). Format: cell-based, Staphylococcus aureus. As to conditions: combination with CBD 1-2 μg/mL; bacitracin 16, daptomycin 4, tetracycline 16, fosfomycin 16, dicloxacillin 0.0625, chlorhexidine 0.25, vancomycin 0.5 μg/mL (FIG. 1). The procedure:
BCA: Background corrected absorption. ? Growth control, ? CBD, -▴- Antibiotic, ? Combination.
as §2
An ON culture was made by inoculating a bacterial colony in either 5 mL of MH or BHI at incubated at 37° C. with agitation. 25 μL of specific concentrations of the antibiotic and cannabinoid to be tested was added to the desired wells of a sterile 96-well plate (Thermo Scientific). 25 μL of MH or BHI media was added to the wells only containing one of the two compounds tested. The bacterial ON culture was diluted to a final OD600 nm of 0.005 and 50 μL was dispensed into each well to a final volume of 100 μL. To decrease evaporation, 2 mL of pre-heated water was added to the corners of the 96-well plate containing cavities. The plate was placed in the oCelloScope inside an incubator at 37° C. Illumination level and focus was adjusted for each well and the growth was measured for approximately 25 hours. Measurements were performed every half an hour for the first half of the time and every hour for the last half using the UniExplorer software. Data retrieved was given in Background corrected absorption (BCA), formerly known as pixel histogram summation (PHS), an algorithm enabling determination of bacterial growth kinetics resulting from images taken with the oCelloScope camera.
A) A screen was performed using the Philips oCelloScope enabling measurements of bacterial growth in presence or absence of either cannabidiol alone or in combination with an antibiotic or antimicrobial, through a 3D scanning system in 96-well plates.

For assay [7], the system named is MRSE (933010 3F-16 b4). The experiment in a line: microbe, parasite or virus in culture. The format is cell-based, Methicillin-resistant Staphylococcus epidermidis. The procedure: as §1, §3, §4, §5
In assay [8] the test system is Salmonella typhimurium (14028). The experiment in a line: MIC, Gram-negative bacteria. The format is cell-based. As to conditions: Salmonella enterica, above tested concentrations. The procedure: as §1, §3
(§6) To further assess the spectrum of use for the combination of CBD and bacitracin, growth of Gram-negative bacteria upon treatment was measured as well as described in Example 1.
(§7) The Gram-negative bacteria tested were strains of Pseudomonas aeruginosa, Salmonella typhimurium, Klepsiella pneumoniae, Vibrio cholera, and Escherichia coli. MIC for CBD and bacitracin in the Gram-negative bacteria are visualized in table 3, and were both above tested concentrations.

For assay [9], the system named is Klepsiella pneumoniae (CAS55). The experiment in a line: MIC, Gram-negative bacteria. The conditions noted are these: above tested concentrations. The format is cell-based. The procedure:
as §1, §3, §6, §7

The test system of assay [10] is Escherichia coli (UTI89). The experiment in a line: MIC, Gram-negative bacteria. The format is cell-based. The conditions noted are these: above tested concentrations. The procedure:
as §1, §3, §6, §7

In assay [11] the test system is Pseudomonas aeruginosa (PA01). The experiment in a line: MIC, Gram-negative bacteria. As to conditions: above tested concentrations. The format is cell-based. The procedure:
as §1, §3, §6, §7

Where [12] appears, read: MRSA USA300 FPR3757, Table 2, two biological replicates.
[13] abbreviates: USA300, Table 4, unit not given.

On to `CC[C@H](C)[C@H](N)C1=N[C@H](C(=O)N[C@@H](CC(C)C)C(=O)N[C@H](CCC(=O)O)C(=O)N[C@H](C(=O)N[C@H]2CCCCNC(=O)[C@H](CC(N)=O)NC(=O)[C@@H](CC(=O)O)NC(=O)[C@H](Cc3cnc[nH]3)NC(=O)[C@@H](Cc3ccccc3)NC(=O)[C@H]([C@@H](C)CC)NC(=O)[C@@H](CCCN)NC2=O)[C@@H](C)CC)CS1` [Bacitracin] ({Ileψ(thiazoline)Cys}-L[dE]IK[dOrn]I[dF]H[dD]N; lactam 4-C), for which the MIC in assay [1] (Vibrio cholerae (A1522), above tested concentrations) is >1024 µg/mL; in assay [2] (setting [12]), 64 µg/mL (≈ 45 µM); in [2] (WT USA300) it was 64 µg/mL (≈ 45 µM); in assay [3] (EGD), 512 µg/mL; in [4] (13-327129) it was 128 µg/mL; in assay [5] (16-7418) it was 128 µg/mL. The MIC in assay [7] (MRSE (933010 3F-16 b4)) amounted to 32 µg/mL. For the same compound, the Fold decreased bacitracin was 16-32 fold in [2] (MRSA USA300 FPR3757, bacitracin MIC combined with CBD compared to bacitracin alone); 8-16 fold in [3] (L. monocytogenes EGD, bacitracin MIC combined with CBD compared to bacitracin alone); 16 fold in assay [4] (E. faecalis (13-327129), bacitracin MIC combined with CBD compared to bacitracin alone); 64 fold in assay [7] (MRSE (933010 3F-16 b4), bacitracin MIC combined with CBD compared to bacitracin alone). In [2] (WT USA300), the “FIC Index” value stood at 0.30. Further, in assay [6], the “synergistic potential in growth curves” value was “synergistic potential”.

Regarding `CCCCCc1cc(O)c2c(c1)OC(C)(CCC=C(C)C)C=C2` (centres unmarked) [Cannabichromene (CBC), Cannabichromene], in [2] (USA300), the “FIC index (with bacitracin)” value turned out to be 0.63 and the “FIC index (with daptomycin)” value was determined as 0.63. The compound further gave an MIC in [2] (setting [13]) of 4.

As for `C=C(C)[C@@H]1CCC(C)=C[C@H]1c1c(O)cc(CCCCC)cc1O` [Cannabidiol (CBD), Cannabidiol], the MIC is > 128 µg/mL in assay [1] (Vibrio cholerae); > 128 µg/mL in assay [8]; > 128 µg/mL in [9]; > 128 µg/mL in assay [10]; > 128 µg/mL in assay [11]; 4 µg/mL (≈ 12.7 µM) in assay [2] (setting [12]). Besides, the MIC worked out at 4 µg/mL (≈ 12.7 µM) in [2] (Staphylococcus aureus); 4 µg/mL in [3] (Listeria monocytogenes, L. monocytogenes EGD, read-out: MIC); 16 µg/mL in assay [4] (Enterococcus faecalis, E. faecalis (13-327129), read-out: MIC); 16 µg/mL in assay [5] (Enterococcus faecalis, E. faecalis (16-7418), read-out: MIC); 4 µg/mL in assay [7] (Staphylococcus epidermidis, MRSE).

As to `CCCCCc1cc(O)c(C/C=C(\C)CCC=C(C)C)c(O)c1` [Cannabigerol (CBG), Cannabigerol], in assay [2] (USA300), the “FIC index (with bacitracin)” value came out at 0.88 and the “FIC index (with daptomycin)” value was found to be 1.0. Further, the MIC in assay [2] (setting [13]) was 4.

As to `CO/N=C(\C(=O)N[C@@H]1C(=O)N2C(C(=O)O)=C(CSc3nc(=O)c(=O)[nH]n3C)CS[C@H]12)c1csc(N)n1` [Ceftriaxone], in assay [2] (Staphylococcus aureus), the MIC was 32 µg/mL (≈ 57.7 µM). Also, the “FIC Index” value in [2] (WT USA300) was 1.5.

In [2] (Staphylococcus aureus), `[H]/N=C(\N/C(=N/[H])NCCCCCCNC(=N)NC(=N)Nc1ccc(Cl)cc1)Nc1ccc(Cl)cc1` [Chlorhexidine] showed an MIC of 1 to 2 µg/mL (≈ 1.98 to 3.96 µM). In assay [2] (WT USA300), the “FIC Index” value was 1. Moreover, the “synergistic potential in growth curves” value in assay [6] is on record as “no synergistic potential”.

The record behind these values is US11266609B2, “Bacitracin and/or daptomycin combined with cannabidiol for treatment of bacterial infections” (priority 2017, dated 2022).
